Data reported in patent publication US20010014732A1, “Biocidal proteins” (ZENECA Limited, priority 1991, published 2001).
Several values for one entry are separate records, joined by “and”; a condition that tells them apart may be missing. Equal values may be shown once.

Legend:
[1] = system: Cercospora beticola (strain E897); test: Anti-fungal activity against foliar disease: in vivo test on sugarbeet plants; conditions: foliar spray one day prior to inoculation
[2] = system: Cercospora beticola strain K897; format: cell-based
[3] = system: Fusarium culmorum IMI 180420; format: cell-based
[4] = system: Fusarium oxysporum f.sp. pisi IMI 236441; format: cell-based
[5] = system: Rhizoctonia solani CBS 207-84; format: cell-based
[6] = system: Sclerotinia sclerotianum MUCL 30163; format: cell-based
[7] = system: Septoria nodorum MUCL 30111; format: cell-based
[8] = system: Trichoderma hamatum MUCL 29736; format: cell-based
[9] = system: Venturia inaegualis MUCL 15927; format: cell-based
plant pathogenic fungi = format: cell-based
F culmorum and T hamatum = format: cell-based, Fusarium culmorum, Trichoderma hamatum
Description: Antifungal activity was measured by microspectrophotometry as previously described (Broekaert, 1990, FEMS Microbiol Lett, 69:55-60). Routinely, tests were performed with 20 μl of a (filter-sterilized) test solution and 80 μl of a suspension of fungal spores (2×10^4 spores/ml) in half strength potato dextrose broth (1/2 PDB). Some tests were performed using a suspension of mycelium fragments in a synthetic growth medium. […] Control microcultures contained 20 μl of sterile distilled water and 80 μl of the fungal suspension.
Unless otherwise stated the test organism was Fusarium culmorum (strain IMI 180420) and incubation was done at 25° C. for 48 hours. Percent growth inhibition is defined as 100 times the ratio of the corrected absorbance of the control microculture minus the corrected absorbance of the test microculture over the corrected absorbance at 595 nm of the control microculture. The corrected absorbance values equal the absorbance at 595 nm of the culture measured after 48 hours minus the absorbance at 595 nm measured after 30 min.
The effect of ions on the antifungal activity of the Rs-AFPs and Rs-nsLTP was examined in more detail. […] The reference medium was the synthetic growth medium described in Example 1 which contains a total of 2.5 mM monovalent cations and 0.1 mM divalent cations. […]

[10] = system: Bacillus megaterium ATCC 13632; format: cell-based
[11] = system: Agrobacterium tumefaciens C58, Alcaligenes eutrophus, Azospirillum brasilense Sp7, Bacillus megaterium ATCC 13632, Erwinia carotovora strain 3912, Escherichia …; format: cell-based

Row | Compound | concentration giving 50% control of the disease [1] | IC50 [2] | IC50 [3] | antifungal activity of the reversed-phase HPLC peak in medium A and medium B [3] | IC50 [4] [μg/m1] | IC50 [5] [μg/m1] | IC50 [6] [μg/m1] | IC50 [7] | IC50 [8] [mg/L] | IC50 [9] | fungi inhibited by more than 50% at concentrations below 100 μg/ml (plant pathogenic fungi) | effect of Ca2+ on antifungal activity (F culmorum and T hamatum; CaCl2 at 5 mM) | effect of K+ on antifungal activity (F culmorum and T hamatum; KCl at up to 50 mM) | concentration causing 50% inhibition of growth [10] [µg/mL] | effect on the other bacteria [11]
1 | CCCCC(O)(Cn1cncn1)c1ccc(Cl)cc1Cl (stereo not shown) [hexaconazole, reference compound] | approximately 7 μM | – | – | – | – | – | – | – | – | – | – | – | – | – | –
2 | Rs-AFP2: antifungal protein from Raphanus sativus (radish) seeds, oligomeric, identical 5 kDa subunits, highly basic (QKLCQRPSGTWSGVCGNNNACKNQCIRLEKARHGSCNYVFPAHKCICYFPC; UniProt P30230 30-80, looked up) | approximately 15 μM | 2 μg/m1 and 3 μg/m1 | 2 mg/L and 5 mg/L | active in both medium A and medium B | 2 | >100 | >100 | 15 μg/m1 and 20 μg/m1 | 2 | 25 μg/m1 and >50 μg/m1 | 11 out of 18 | varied from a slight increase in IC50 for F culmorum to complete inactivation for T hamatum | did not affect the antifungal activity | 200 | no effect
